Test results reported in patent publication US8748462B2, “Spirocyclic GPR40 modulators” (Amgen Inc., priority 2008, dated 2014).

What was measured:
human GPR40 [1] = target: T1, human GPR40 (Homo sapiens, UniProt O14842); test: Cell-based aequorin assay; settings: CHO cells stably transfected with GPR40 and aequorin; 0.01% HSA
T1 construct: expressed in transfected cells; host or cells: CHO cells stably transfected with GPR40 and Aequorin
Protocol: Cell-based aequorin assays were employed to characterize the modulatory activity of compounds on the GPR40 signaling pathway. In an exemplary assay, CHO cells were stably transfected with both GPR40 and Aequorin (Euroscreen). Cells were detached from the tissue culture dish with 2 mL of trypsin (0.25% (w/v)). Trypsinization was halted with 28 mL of Hanks Buffered Salt Solution containing 20 mM Hepes (H/HBSS) and 0.01% fatty acid-free human serum albumin (HSA). Coelantrazine is added to 1 ug/mL, and the cells were incubated for 2 hours at room temperature. Compounds were dissolved in DMSO for preparation of 10 mM stock solutions. Compounds were diluted in H/HBSS containing 0.01% HSA. Serial dilutions of the test compounds were prepared to determine dose response.
Aequorin luminescence measurements were made using an EG&G Berthold 96-well luminometer, and the response was measured over a 20 second interval after cells and compounds were mixed. The maximum relative light units was plotted to determine dose response. The EC50 (effective concentration to reach 50% maximal response) was determined from the dose response plot.

human GPR40 [2] = target: T1, human GPR40; test: Inositol phosphate accumulation assay; assay type: cell-based; settings: A9 cell line stably transfected with GPR40; 1 hour at 37° C.; read-out: IP3 EC50
Protocol: An A9 cell line stably transfected with GPR40 (A9_GPR40) was used in IP accumulation assays. A9_GPR40 cells were plated in 96-well plates containing 20,000 cells/well in DMEM containing 10% FBS. After the cells attached to the well surface, the media was replaced with inositol free DMEM containing 10% dialyzed FBS and 1 μCi, mL ^3H-inositol and incubated for 16 hours. Compounds were diluted in HBSS/10 mM LiCl containing a desired amount of HSA and added directly to cells. Following 1 hour incubation at 37° C., the media was replaced with 100 μL of 20 mM formic acid to quench the reaction. 50 μL of the extract was then added to 100 μL of SPA beads, incubated overnight, and measured on a TopCount the following day.

T1 sequence (O14842 whole entry): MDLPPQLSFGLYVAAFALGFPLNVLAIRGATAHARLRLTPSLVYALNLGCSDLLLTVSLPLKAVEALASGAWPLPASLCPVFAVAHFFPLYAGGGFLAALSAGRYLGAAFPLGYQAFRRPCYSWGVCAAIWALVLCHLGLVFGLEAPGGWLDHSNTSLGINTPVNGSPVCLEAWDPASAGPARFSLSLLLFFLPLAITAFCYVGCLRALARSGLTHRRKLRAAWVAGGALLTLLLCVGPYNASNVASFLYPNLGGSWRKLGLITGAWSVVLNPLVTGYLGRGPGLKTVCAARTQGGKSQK

EC50 (human GPR40 [1]) [nM] | EC50 (human GPR40 [2]) [nM] | Compound
100 to 1000 | 10 to 100 | COc1cc(-c2ccc(COc3ccc4c(c3)C3(CCC4)CCC3C(=O)O)cc2[C@@H]2CCCC2(C)C)c(F)cn1 (single isomer, unassigned) [Example 156]
100 to 1000 | < 10 | COc1cc(-c2ccc(COc3ccc4c(c3)[C@]3(CC4)CC[C@@H]3C(=O)O)cc2[C@@H]2CCCC2(C)C)c(F)cn1 (single isomer, unassigned) [Example 150]
10 to 100 | < 10 | COc1ccc(F)c(-c2ccc(COc3ccc4c(c3F)[C@]3(CCC4)C[C@H]3C(=O)O)cc2[C@H]2CCCC2(C)C)c1 (single isomer, unassigned) [Example 51]
100 to 1000 | 10 to 100 | COc1ccc(F)c(-c2ccc(COc3ccc4c(c3)[C@]3(CC4)C[C@H]3C(=O)O)cc2[C@@H]2CCCC2(C)C)c1 (single isomer, unassigned) [Example 9]
10 to 100 | < 10 | COc1cc(-c2ccc(COc3ccc4c(c3)[C@]3(CC4)C[C@H]3C(=O)O)cc2[C@@H]2CCCC2(C)C)c(F)cn1 [Example 19, (1R,2R)-6′-(3-((R)-2,2-Dimethylcyclopentyl)-4-(5-fluoro-2-methoxypyridin-4-yl)benzyloxy)-2′,3′-dihydrospiro[cyclopropane-1,1′-indene]-2-carboxylic acid]
100 to 1000 | < 10 | COc1ccc(F)c(-c2ccc(COc3ccc4c(c3)C3(CC4)CCC3C(=O)O)cc2C(OC)C(C)(C)C)c1 (single isomer, unassigned) [Example 149]
100 to 1000 | 10 to 100 | COc1ccc(F)c(-c2ccc(COc3ccc4c(c3)[C@]3(CCC4)C[C@H]3C(=O)O)cc2C2=CCCC2(C)C)c1 [Example 49]
100 to 1000 | < 10 | COc1ccc(F)c(-c2ccc(COc3ccc4c(c3)C3(CCC4)CCC3C(=O)O)cc2C(OC)C(C)(C)C)c1 (single isomer, unassigned) [Example 155]
10 to 100 | < 10 | COc1ccc(F)c(-c2ccc(COc3ccc4c(c3)[C@]3(CC4)C[C@H]3C(=O)O)cc2[C@H]2CCCC2(C)C)c1 (single isomer, unassigned) [Example 11]
100 to 1000 | 10 to 100 | COc1ccc(F)c(-c2ccc(COc3ccc4c(c3)[C@]3(CCC4)CC[C@@H]3C(=O)O)cc2[C@@H]2CCCC2(C)C)c1 (single isomer, unassigned) [Example 154]
100 to 1000 | < 10 | COc1ccc(F)c(-c2cc(F)c(COc3ccc4c(c3)[C@]3(CCC4)C[C@H]3C(=O)O)cc2[C@H]2CCCC2(C)C)c1 (single isomer, unassigned) [Example 45]
100 to 1000 | 10 to 100 | COc1ccc(F)c(-c2ccc(COc3ccc4c(c3)[C@]3(CCC4)CC[C@@H]3C(=O)O)cc2C2=CCCC2(C)C)c1 (single isomer, unassigned) [Example 158]
10 to 100 | < 10 | COc1ccc(F)c(-c2ccc(COc3ccc4c(c3)[C@]3(CCC4)C[C@H]3C(=O)O)cc2[C@@H](OC)C(C)(C)C)c1 (single isomer, unassigned) [Example 46]
10 to 100 | < 10 | COc1ccc(F)c(-c2ccc(COc3ccc4c(c3)[C@]3(CC4)C[C@H]3C(=O)O)cc2[C@H]2CCCCC2(C)C)c1 (single isomer, unassigned) [Example 15]
100 to 1000 | 10 to 100 | COc1ccc(F)c(-c2ccc(COc3ccc4c(c3)[C@]3(CC4)CC[C@@H]3C(=O)O)cc2C2=CCCC2(C)C)c1 (single isomer, unassigned) [Example 151]

Second part, the compound before the results:

Compound | EC50 (human GPR40 [1]) [nM] | EC50 (human GPR40 [2]) [nM]
COc1ccc(F)c(-c2ccc(COc3ccc4c(c3F)[C@]3(CC4)C[C@H]3C(=O)O)cc2[C@@H](OC)C(C)(C)C)c1 (single isomer, unassigned) [Example 31] | 10 to 100 | < 10
COc1cc(-c2cc(F)c(COc3ccc4c(c3)[C@]3(CC4)C[C@H]3C(=O)O)cc2[C@@H]2CCCC2(C)C)c(F)cn1 (single isomer, unassigned) [Example 17] | 10 to 100 | < 10
CO[C@@H](c1cc(COc2ccc3c(c2)[C@]2(CCC3)C[C@H]2C(=O)O)ccc1-c1cccc(Cl)c1)C(C)(C)C (racemic) [Example 137] | 100 to 1000 | 10 to 100
COc1ccc(F)c(-c2ccc(COc3ccc4c(c3)[C@]3(CC4)C[C@H]3C(=O)O)cc2[C@@H](OC)C(C)(C)C)c1 (single isomer, unassigned) [Example 12] | 10 to 100 | < 10
COc1ccc(F)c(-c2cc(F)c(COc3ccc4c(c3F)[C@]3(CCC4)C[C@H]3C(=O)O)cc2[C@H]2CCCC2(C)C)c1 (single isomer, unassigned) [Example 56] | 100 to 1000 | < 10
COc1cc(-c2ccc(COc3ccc4c(c3F)[C@]3(CC4)C[C@H]3C(=O)O)cc2[C@@H]2CCCC2(C)C)c(Cl)cn1 (stereo in doubt) [Example 125] | 100 to 1000 | 10 to 100
COc1cc(-c2ccc(COc3cc4c(cn3)CC[C@@]43C[C@@H]3C(=O)O)cc2[C@@H](OC)C(C)(C)C)c(F)cn1 (single isomer, unassigned) [Example 59, (2′S,5S)-3-({4-(5-Fluoro-2-methoxypyridin-4-yl)-3-[(1S)-1-methoxy-2,2-dimethylpropyl]phenyl}methoxy)-6,7-dihydrospiro[cyclopenta[c]pyridine-5,1′-cyclopropane]-2′-carboxylic acid or (2′S,5S)-3-({4-(5-fluoro-2-methoxypyridin-4-yl)-3-[(1R)-1-methoxy-2,2-dimethylpropyl]phenyl}methoxy)-6,7-dihydrospiro[cyclopenta[c]pyridine-5,1′-cyclopropane]-2′-carboxylic acid] | 100 to 1000 | 100 to 1000
CCCCOc1cc(COc2ccc3c(c2)[C@]2(CC3)C[C@H]2C(=O)O)ccc1-c1cccc(OC)c1 [Example 25] | 100 to 1000 | 100 to 1000
CCCOc1ccc(COc2ccc3c(c2)[C@]2(CCC3)C[C@H]2C(=O)O)cc1[C@@H]1CCCC1(C)C (single isomer, unassigned) [Example 129] | 1000 to 10000 | 100 to 1000
COc1cc(-c2ccc(COc3ccc4c(c3)[C@]3(CC4)C[C@H]3C(=O)O)cc2[C@@H](OC)C(C)(C)C)c(F)cn1 (single isomer, unassigned) [Example 28] | 100 to 1000 | < 10
COc1cc(-c2cc(F)c(COc3ccc4c(c3F)[C@]3(CCC4)C[C@H]3C(=O)O)cc2[C@H]2CCCC2(C)C)c(F)cn1 (single isomer, unassigned) [Example 57] | 100 to 1000 | < 10
COc1cc(-c2ccc(COc3cc4c(cn3)CC[C@]43C[C@H]3C(=O)O)cc2[C@@H](OC)C(C)(C)C)c(F)cn1 (single isomer, unassigned) [Example 58, (2′R,5R)-3-({4-(5-Fluoro-2-methoxypyridin-4-yl)-3-1[(1S)-1-methoxy-2,2-dimethylpropyl]phenyl}methoxy)-6,7-dihydrospiro[cyclopenta[c]pyridine-5,1′-cyclopropane]-2′-carboxylic acid or (2′R,5R)-3-({4-(5-fluoro-2-methoxypyridin-4-yl)-3-[(1R)-1-methoxy-2,2-dimethylpropyl]phenyl}methoxy)-6,7-dihydrospiro[cyclopenta[c]pyridine-5,1′-cyclopropane]-2′-carboxylic acid] | 100 to 1000 | < 10
COc1cc(-c2ccc(COc3ccc4c(c3F)[C@]3(CC4)C[C@H]3C(=O)O)cc2[C@@H](OC)C(C)(C)C)c(F)cn1 (single isomer, unassigned) [Example 30] | 10 to 100 | < 10
CCCCOc1cc(COc2ccc3c(c2)[C@]2(CC3)C[C@H]2C(=O)O)ccc1-c1cc(OC)ccc1F [Example 24] | 100 to 1000 | 10 to 100
COc1cc(-c2ccc(COc3cc(F)c4c(c3F)[C@]3(CC4)C[C@H]3C(=O)O)cc2[C@@H]2CCCC2(C)C)c(F)cn1 (single isomer, unassigned) [Example 41, (1R,2R)-6′-(3-((R)-2,2-dimethylcyclopentyl)-4-(5-fluoro-2-methoxypyridin-4-yl)benzyloxy)-4′,7′-difluoro-2′,3′-dihydrospiro[cyclopropane-1,1′-indene]-2-carboxylic acid or (1S,2S)-6′-(3-((R)-2,2-dimethylcyclopentyl)-4-(5-fluoro-2-methoxypyridin-4-yl)benzyloxy)-4′,7′-difluoro-2′,3′-dihydrospiro[cyclopropane-1,1′-indene]-2-carboxylic acid] | 100 to 1000 | < 10
COc1cc(-c2ccc(COc3ccc4c(c3)[C@]3(CCC4)C[C@H]3C(=O)O)cc2[C@H](OC)C(C)(C)C)c(Cl)cn1 (racemic) [Example 139] | 100 to 1000 | < 10
